# Results from US7166762B2, “Method of constructing heart failure model animal” (Takeda Pharmaceutical Company Limited, priority 2000, dated 2007).
# Test system: β-receptor
# Experiment: Reactivity for dobutamine (β-receptor response, LVdp/dtmax) in anesthetized rats 1 week after the operation
# Type: in vivo, rat
# Conditions: i.v.; for reactivity of the β-receptor: difference in LVdp/dtmax between before and after administration (Δ): male JCL-Wistar rat, mean ± standard error
# Experimental: A male JCL-Wistar rat (13 to 15 week-old) was anesthetized with pentobarbital (50 mg/kg, i.p.) and subjected to thoracotomy at the midline under artificial respiration. The pericardium was dissected to expose the heart, and the proximal portion of the ascending aorta was dissected. A thread was put through the proximal portion of the left coronary artery along with the cardiac muscle, with a needled suture, and the thread was ligated to occlude the coronary artery. Immediately after the occlusion of the coronary artery (within 5 minutes), a polyethylene tube having a length of 3 mm (outer diameter: 2.80 mm; inner diameter: 1.77 mm) was installed on the proximal portion of the ascending aorta to conduct stenosis of 40 to 50%. After that, close-chest operation was conducted, and the rat was returned to a breeding cage after spontaneous respiration had been confirmed, and bred for 1 week by a general procedure. The rats in which the recovery of spontaneous respiration had not been confirmed were excluded from the following analysis. After 1 week of the operation, to measure the hemodynamics, the rat was anesthetized with pentobarbital (40 mg/kg, i.p.). A tracheal cannula was inserted, then a mirror catheter having a pressure sensor (2F) was inserted from the right carotid artery to the left ventricle. The waveform of the left ventricular pressure was analyzed with a differential amplifier, and the maximum differential value (LVdp/dtmax) and the minimum differential value (LVdp/dtmin) were recorded.
# On the other hand, in order to measure the blood pressure and to administrate a drug, a polyethylene tube was inserted to the left femoral artery and left femoral vein, respectively, and the heart rate carculated from the blood pressure pulse and the dipolar lead (II) electrocardiogram were recorded.
# Dobutamime was dissolved in a solution of saline containing 0.01% of ascorbic acid, and the solution was administrated in a dose of 0.3 to 10 μg/kg i.v. to investigate the β-receptor response.
# The basal hemodynamics after 1 week of the operation was represented by the value before the administration of dobutamime, and the reactivity of the β-receptor was represented by the difference between before and after the administration of dobutamime (Δ mmHg/sec) by the mean value±standard error.
smiles,measurement,setting,value
CC(CCc1ccc(O)cc1)NCCc1ccc(O)c(O)c1 (stereo not drawn) [Dobutamine],reactivity of the β-receptor: difference in LVdp/dtmax between before and after administration (Δ),"0.3 μg/kg, group with coronary stenosis and stenosis of the proximal portion of the aorta",278 ± 144 mmHg/sec
same,reactivity of the β-receptor: difference in LVdp/dtmax between before and after administration (Δ),"0.3 μg/kg, sham-operated group",2287 ± 8 mmHg/sec
same,reactivity of the β-receptor: difference in LVdp/dtmax between before and after administration (Δ),"1.0 μg/kg, group with coronary stenosis and stenosis of the proximal portion of the aorta",832 ± 501 mmHg/sec
same,reactivity of the β-receptor: difference in LVdp/dtmax between before and after administration (Δ),"1.0 μg/kg, sham-operated group",4127 ± 112 mmHg/sec
same,reactivity of the β-receptor: difference in LVdp/dtmax between before and after administration (Δ),"3.0 μg/kg, group with coronary stenosis and stenosis of the proximal portion of the aorta",1641 ± 794 mmHg/sec
same,reactivity of the β-receptor: difference in LVdp/dtmax between before and after administration (Δ),"3.0 μg/kg, sham-operated group",7135 ± 753 mmHg/sec
same,reactivity of the β-receptor: difference in LVdp/dtmax between before and after administration (Δ),"10 μg/kg, group with coronary stenosis and stenosis of the proximal portion of the aorta",2431 ± 1028 mmHg/sec
same,reactivity of the β-receptor: difference in LVdp/dtmax between before and after administration (Δ),"10 μg/kg, sham-operated group",7654 ± 999 mmHg/sec
same,maximum reaction of LVdp/dtmax in the stenosis group as compared with the sham-operated group,"all doses 0.3, 1.0, 3.0, 10 μg/kg, coronary + proximal aorta stenosis group vs sham-operated group",remarkably decreased
